# Assays:
# [1] = target: T1, TRPA1 (mTRPA1) (Mus musculus, UniProt Q8BLA8); assay: whole-cell patch clamp, agonist concentration-response in transfected HEK293 cells; no current in untransfected cells; type: cell-based
# [2] = target: T1, TRPA1 (mTRPA1); assay: whole-cell patch clamp, inhibition of AITC-induced current in transfected HEK293 cells; type: cell-based
# T1 sequence (Q8BLA8 whole entry): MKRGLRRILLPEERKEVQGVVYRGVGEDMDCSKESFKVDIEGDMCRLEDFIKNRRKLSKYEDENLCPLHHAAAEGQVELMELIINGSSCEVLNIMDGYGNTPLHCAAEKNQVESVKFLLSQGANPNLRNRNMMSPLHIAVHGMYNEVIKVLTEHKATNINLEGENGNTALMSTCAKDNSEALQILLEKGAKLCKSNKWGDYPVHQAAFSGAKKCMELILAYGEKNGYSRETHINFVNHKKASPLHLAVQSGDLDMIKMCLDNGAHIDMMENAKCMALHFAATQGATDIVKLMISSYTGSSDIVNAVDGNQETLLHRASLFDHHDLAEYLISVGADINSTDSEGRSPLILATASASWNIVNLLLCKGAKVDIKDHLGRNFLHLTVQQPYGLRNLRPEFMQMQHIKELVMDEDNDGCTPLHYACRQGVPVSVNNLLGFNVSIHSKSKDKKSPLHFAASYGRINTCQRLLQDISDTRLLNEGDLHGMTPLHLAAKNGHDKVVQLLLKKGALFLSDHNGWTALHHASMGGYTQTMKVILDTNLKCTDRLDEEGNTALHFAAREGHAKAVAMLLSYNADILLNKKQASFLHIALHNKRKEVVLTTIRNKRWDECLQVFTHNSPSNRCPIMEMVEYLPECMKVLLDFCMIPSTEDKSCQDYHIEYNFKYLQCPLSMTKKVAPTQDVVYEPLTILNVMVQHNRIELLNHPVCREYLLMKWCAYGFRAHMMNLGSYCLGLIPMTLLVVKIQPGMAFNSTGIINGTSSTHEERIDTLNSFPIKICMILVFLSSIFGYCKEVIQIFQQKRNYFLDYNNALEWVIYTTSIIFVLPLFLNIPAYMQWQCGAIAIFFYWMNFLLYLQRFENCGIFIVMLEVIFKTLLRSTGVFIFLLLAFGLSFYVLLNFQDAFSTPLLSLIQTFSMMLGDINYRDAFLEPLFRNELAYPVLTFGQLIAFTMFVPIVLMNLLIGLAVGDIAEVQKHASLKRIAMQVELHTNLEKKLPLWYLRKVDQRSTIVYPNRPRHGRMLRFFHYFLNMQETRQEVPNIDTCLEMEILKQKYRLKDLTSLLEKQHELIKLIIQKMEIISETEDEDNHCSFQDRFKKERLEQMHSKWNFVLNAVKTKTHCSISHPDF
Compound,EC50 [1] [µM],IC50 [2] [µM]
"C=CCN=C=S [AITC, allyl isothiocyanate]",61.2,–
"Oc1ccc(/C=C/c2cc(O)cc(O)c2)cc1 [RES, 3,5,4’ - trihydroxy-trans-stilbene]",–,~0.75
